Tested on: breast carcinoma HCC1187 cells
Test: cells
Format: cell-based
Settings: Homo sapiens, HCC1187; compound alone; unit not given in Table 1; read-out: LC50 HCC1187
Excerpt: For further analyses, we used compounds that have the selective cytotoxicity index either above 20 (non-toxic compounds) or below 1 (toxic compounds) with the aim to identify targets that are responsible for the selective activity of the identified compounds toward cancer cells. To confirm that the effects of the selected compounds are not only specific to MIA PaCa-2 cells, we evaluated their cytotoxic activities on breast carcinoma HCC1187 cells (Table 1). […] For easy comparison, the data with MIA PaCa-2 cells were also included in Table 1. […] We also noticed that, again with a few exceptions, HCC1187 cells are more resistant to the non-toxic compounds in the presence of ATO as compared to MIA PaCa-2 cells. In contrast, HCC1187 cells are more sensitive to all toxic compounds in the presence of ATO as compared to MIA PaCa-2 cells. The high sensitivity of HCC1187 cells to toxic compounds contributed to the increased selective cytotoxicity index.

| Structure (SMILES) | CC50 [µM] |
| --- | --- |
| NC1=C(Cl)C(=O)c2ccccc2C1=O [compound 1, 2-chloro-3-amino-1,4-NQ] | 10.8 |
| O=C1C(Cl)=C(NCCO)C(=O)c2ccccc21 [compound 17] | 19.2 |
| CCNC1=C(Cl)C(=O)c2ccccc2C1=O [compound 3] | 23.6 |
| O=C1C=C(SCCO)C(=O)c2ccccc21 [compound 60] | 0.6 |
| CCCCOCCCNC1=C(Cl)C(=O)c2ccccc2C1=O [compound 26] | 1.7 |
| CCNC1=CC(=O)c2ncccc2C1=O [compound 66] | 13.2 |
| O=C1C(Cl)=C(Nc2ccccc2)C(=O)c2ccccc21 [compound 39] | 1.7 |

Same assay, conditions: human

| Structure (SMILES) | Selective cytotoxicity index HCC 1187 ATO |
| --- | --- |
| O=C1C(Cl)=C(NCCO)C(=O)c2ccccc21 [compound 17] | 46.7 |

Tested on: MIA PaCa-2 cells
Test: Hydrogen peroxide cell-based assay (ROS induction), MIA PaCa-2 cells
Settings: Homo sapiens, hydrogen peroxide level relative to DMSO-treated cells (100%), read-out: ROS increase, % MIA PaCa-2
Protocol: Cells were incubated for 2 h with either compounds (30 μM) or DMSO in a 96-well plate. After the treatment, 80 μl of cell culture medium was collected and the level of hydrogen peroxide was determined using a Hydrogen Peroxide Cell-Based Assay kit (Cayman).
Cells were incubated with the compounds for 4 h and the level of ROS induction was measured by a hydrogen peroxide cell-based assay kit. Compounds were assayed at a fixed concentration of 30 μM and the measured level of hydrogen peroxide was expressed as percentage in relation to DMSO-treated cells (100%). […] This distinction was more evident for compounds with the highest selective cytotoxicity index. […] We conclude that the selective induction of ROS in cancer cells is required but not sufficient factor for the selective anti-tumor activity.

| Structure (SMILES) | activity at 30 µM [%] |
| --- | --- |
| NC1=C(Cl)C(=O)c2ccccc2C1=O [compound 1, 2-chloro-3-amino-1,4-NQ] | 331 |
| O=C1C(Cl)=C(NCCO)C(=O)c2ccccc21 [compound 17] | 295 |
| CCNC1=C(Cl)C(=O)c2ccccc2C1=O [compound 3] | 182 |
| CCCCOCCCNC1=C(Cl)C(=O)c2ccccc2C1=O [compound 26] | 889 |
| CCNC1=CC(=O)c2ncccc2C1=O [compound 66] | 626 |
| O=C1C(Cl)=C(NCCc2ccccc2)C(=O)c2ccccc21 [compound 36] | 721 |

Tested on: Recombinant NADH/NADPH dehydrogenase
Test: NADH/NADPH dehydrogenase-mediated ROS generation assay
Format: biochemical
Settings: 30 μM, 4 h at 37°C; absence of NADH/NADPH dehydrogenase
Protocol: Recombinant NADH/NADPH dehydrogenase (0.5 units/well) in a 96-well plate was incubated in 100 μl of the assay buffer (50 mM potassium phosphate buffer, pH 7.5 supplemented with 1 mM EDTA) containing NADPH (3 μM) and superoxide dismutase (SOD) (100 units/well) with and without compound (30 μM) for 4 h at 37°C. At the end of incubation, the level of hydrogen peroxide was measured using a Hydrogen Peroxide Assay kit (Cayman). Control samples were without NADH/NADPH dehydrogenase. The rate of NADH/NADPH dehydrogenase- and compound-mediated ROS production was determined by subtracting values that were obtained in the absence of NADPH dehydrogenase. One unit of NADH/NADPH dehydrogenase was defined as the amount of enzyme required to reduce 1.0 μmole cytochrome C per min/mg in the presence of menadione substrate at 37°C. One unit of SOD was defined as the amount of enzyme required to inhibit reduction of cytochrome C by 50% in a coupled system with xanthine oxidase at pH 7.8 at 25°C in a 3.0 mL reaction volume. Xanthine oxidase concentration should produce an initial ΔA550 of 0.025 ± 0.005 per min.
As the next step, we examined the capability of the selected compounds to generate ROS in the presence or absence of NADH/NADPH dehydrogenase (Table 1). ROS can be generated by NADH/NADPH-dehydrogenase via the one electron reduction of a quinone ring of 1,4-NQs. Unstable half-reduced quinones (semiquinones) transfer electrons to molecular oxygen, thus generating superoxide anion radicals (O2^●-), which are converted by SOD to hydrogen peroxide. We believe that our assay measuring compound’s ability to generate H2O2 in the presence or absence of NADH/NADPH dehydrogenase more closely resembles conditions inside the cell than the assay designed to measure compound’s redox potential values. […] To determine the ability of compounds to induce ROS, compounds were incubated for 4 h at 37°C with and without NADH/NADPH-dehydrogenase in the presence of NADPH as an electron donor and SOD to convert generated superoxide radicals into hydrogen peroxide. At the end of incubation, 10-acetyl-3,7-dihydroxyphenoxazine (ADHP) and horseradish peroxidase (HRP) were added to the reaction and the level of HRP-mediated formation of the fluorogenic product, resorufin, was measured on a plate reader. ROS production was detected in reactions with either the toxic or non-toxic compounds.

| Structure (SMILES) | H2O2 generation, NADH/NADPH dehydrogenase - [µM] |
| --- | --- |
| NC1=C(Cl)C(=O)c2ccccc2C1=O [compound 1, 2-chloro-3-amino-1,4-NQ] | 4.1 |
| O=C1C(Cl)=C(NCCO)C(=O)c2ccccc21 [compound 17] | 2.6 |
| CCNC1=C(Cl)C(=O)c2ccccc2C1=O [compound 3] | 3.9 |
| O=C1C=C(SCCO)C(=O)c2ccccc21 [compound 60] | 6.9 |
| CCCCOCCCNC1=C(Cl)C(=O)c2ccccc2C1=O [compound 26] | 5.9 |
| CCNC1=CC(=O)c2ncccc2C1=O [compound 66] | 5.4 |
| O=C1C(Cl)=C(NCCc2ccccc2)C(=O)c2ccccc21 [compound 36] | 7.0 |
| O=C1C(Cl)=C(Nc2ccccc2)C(=O)c2ccccc21 [compound 39] | 1.6 |

Same assay, conditions: 30 μM, 4 h at 37°C; presence of NADH/NADPH dehydrogenase

| Structure (SMILES) | H2O2 generation, NADH/NADPH dehydrogenase + [µM] |
| --- | --- |
| NC1=C(Cl)C(=O)c2ccccc2C1=O [compound 1, 2-chloro-3-amino-1,4-NQ] | 7.6 |
| O=C1C(Cl)=C(NCCO)C(=O)c2ccccc21 [compound 17] | 4.8 |
| CCNC1=C(Cl)C(=O)c2ccccc2C1=O [compound 3] | 6.3 |
| O=C1C=C(SCCO)C(=O)c2ccccc21 [compound 60] | 12.7 |
| CCCCOCCCNC1=C(Cl)C(=O)c2ccccc2C1=O [compound 26] | 3.8 |
| CCNC1=CC(=O)c2ncccc2C1=O [compound 66] | 10.3 |
| O=C1C(Cl)=C(NCCc2ccccc2)C(=O)c2ccccc21 [compound 36] | 6.3 |
| O=C1C(Cl)=C(Nc2ccccc2)C(=O)c2ccccc21 [compound 39] | 2.8 |

Target: T1, human GAPDH enzyme (Homo sapiens, UniProt P04406)
T1 construct: endogenous in cells; host or cells: MIA PaCa-2 cells
T1 sequence (P04406 whole entry): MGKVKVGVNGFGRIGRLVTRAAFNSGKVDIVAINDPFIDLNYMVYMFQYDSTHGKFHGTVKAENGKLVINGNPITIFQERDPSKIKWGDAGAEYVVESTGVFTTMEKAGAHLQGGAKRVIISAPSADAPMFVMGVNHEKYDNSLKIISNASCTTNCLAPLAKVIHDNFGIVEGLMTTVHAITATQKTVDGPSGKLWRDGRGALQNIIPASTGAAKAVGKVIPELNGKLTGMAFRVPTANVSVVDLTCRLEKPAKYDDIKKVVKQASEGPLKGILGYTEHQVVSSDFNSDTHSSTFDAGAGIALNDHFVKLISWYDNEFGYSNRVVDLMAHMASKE
Test: GAPDH activity assay in MIA PaCa-2 cells
Format: cell-based
Settings: 2 h, read-out: GAPDH, enzyme residual activity as compared to DMSO-treated sample
Protocol: Cells were incubated for 2 h with either compounds (30 μM) or DMSO in a 6-well plate. Next, cells were collected in 200 μl of PBS and disrupted by sonication. Insoluble material was removed by centrifugation. The level of GAPDH activity was determined by GAPDH activity assay kit (BioVision).
As a final step, we evaluated the inhibitory activity of the selected compounds against human GAPDH enzyme in a cell-based assay using MIA PaCa-2 cells (Table 1). Cells were pre-incubated with compounds for 2 h at 37°C followed by cell lysis using sonication and GAPDH activity assay. The ability of compounds to inhibit GAPDH was expressed as percentage of GAPDH residual activity with respect to DMSO-treated cells. […] Similar to the GSR activity assay, only two of the most toxic compounds 31 and 32, were able to inhibit GAPDH by 95 and 97%, respectively.

| Structure (SMILES) | remaining activity at 30 µM [%] |
| --- | --- |
| NC1=C(Cl)C(=O)c2ccccc2C1=O [compound 1, 2-chloro-3-amino-1,4-NQ] | 100 |
| O=C1C(Cl)=C(NCCO)C(=O)c2ccccc21 [compound 17] | 89 |
| CCNC1=C(Cl)C(=O)c2ccccc2C1=O [compound 3] | 100 |
| O=C1C=C(SCCO)C(=O)c2ccccc21 [compound 60] | 88 |
| CCCCOCCCNC1=C(Cl)C(=O)c2ccccc2C1=O [compound 26] | 94 |
| CCNC1=CC(=O)c2ncccc2C1=O [compound 66] | 93 |
| O=C1C(Cl)=C(NCCc2ccccc2)C(=O)c2ccccc21 [compound 36] | 97 |
| O=C1C(Cl)=C(Nc2ccccc2)C(=O)c2ccccc21 [compound 39] | 93 |

Tested on: human primary hepatocytes
Test: cells
Settings: Hepatocyte, read-out: EC50, toxicity to hepatocytes
Excerpt: (§1) We selected hepatocytes as normal cells because hepatocytes are mediate toxicity to multiple drugs and are used as a standard to assess toxicity of drugs in vitro [28]. […] For comparison with the standard of care, doxorubicin was also included in this analysis.

| Structure (SMILES) | EC50 [µM] |
| --- | --- |
| CCCCOCCCNC1=C(Cl)C(=O)c2ccccc2C1=O [compound 26] | 3.6 |

Same assay, conditions: Hepatocyte, read-out: EC50, μM Hepatocytes

| Structure (SMILES) | EC50 [µM] |
| --- | --- |
| NC1=C(Cl)C(=O)c2ccccc2C1=O [compound 1, 2-chloro-3-amino-1,4-NQ] | 17 |
| O=C1C(Cl)=C(NCCO)C(=O)c2ccccc21 [compound 17] | 83 |
| CCNC1=C(Cl)C(=O)c2ccccc2C1=O [compound 3] | 81.9 |
| O=C1C=C(SCCO)C(=O)c2ccccc21 [compound 60] | 3.3 |
| CCCCOCCCNC1=C(Cl)C(=O)c2ccccc2C1=O [compound 26] | 4.8 |
| CCNC1=CC(=O)c2ncccc2C1=O [compound 66] | > 90 |
| O=C1C(Cl)=C(NCCc2ccccc2)C(=O)c2ccccc21 [compound 36] | 8.8 |
| O=C1C(Cl)=C(Nc2ccccc2)C(=O)c2ccccc21 [compound 39] | 2.3 |

Tested on: not listed separately
Test: in vitro
Settings: human, primary hepatocytes
Excerpt: as §1

| Structure (SMILES) | CC50 [µM] |
| --- | --- |
| NC1=C(Cl)C(=O)c2ccccc2C1=O [compound 1, 2-chloro-3-amino-1,4-NQ] | 17 |
| O=C1C(Cl)=C(NCCO)C(=O)c2ccccc21 [compound 17] | 83 |
| CCNC1=C(Cl)C(=O)c2ccccc2C1=O [compound 3] | 81.9 |
| O=C1C=C(SCCO)C(=O)c2ccccc21 [compound 60] | 3.3 |
| CCCCOCCCNC1=C(Cl)C(=O)c2ccccc2C1=O [compound 26] | 4.8 |
| O=C1C(Cl)=C(NCCc2ccccc2)C(=O)c2ccccc21 [compound 36] | 8.8 |
| O=C1C(Cl)=C(Nc2ccccc2)C(=O)c2ccccc21 [compound 39] | 2.3 |

Tested on: Complex I (bovine heart mitochondria)
Test: MitoCheck Complex I activity assay
Settings: 30 μM
Protocol: MitoCheck Complex I activity was determined as described in the manual of the manufacturer’s manual (Cayman). Briefly, compounds (30 μM) or DMSO were mixed with the Complex I activity assay buffer that contained bovine heart mitochondria reagent, NADH, and ubiquinone in the presence of KCN to inhibit complex IV activity. The level of Complex I activity was monitored in a kinetic assay of NADH oxidation by measuring a decrease in absorbance at 340 nm. The residual Complex I activity was calculated by dividing the rate of compound wells by the rate of DMSO wells for the linear portion of the curve.
To test possible effects of compounds on ETC, we analyzed the Complex I-mediated NADH oxidation using a MitoCheck Complex I Activity Assay Kit. The level of NADH oxidation was measured by a decrease in absorbance at 340 nm and expressed as percentage of residual activity in relation to DMSO-treated mitochondria (Table 1). […] Complex I activity was estimated by the rate of NADH oxidation which was also affected by NADH/NADPH-dehydrogenase-mediated redox cycling.

| Structure (SMILES) | stimulation of Complex I activity | inhibition of mitochondrial function (Complex I) [%] |
| --- | --- | --- |
| NC1=C(Cl)C(=O)c2ccccc2C1=O [compound 1, 2-chloro-3-amino-1,4-NQ] | more than 30% | – |
| O=C1C=C(SCCO)C(=O)c2ccccc21 [compound 60] | more than 30% | – |
| CCNC1=CC(=O)c2ncccc2C1=O [compound 66] | more than 30% | – |
| O=C1C(Cl)=C(NCCc2ccccc2)C(=O)c2ccccc21 [compound 36] | more than 30% | – |
| O=C1C(Cl)=C(Nc2ccccc2)C(=O)c2ccccc21 [compound 39] | – | 9 |

Same assay, conditions: 30 μM; bovine heart mitochondria; NADH oxidation

| Structure (SMILES) | Mito Check I, enzyme residual activity as compared to DMSO-treated sample [%] |
| --- | --- |
| NC1=C(Cl)C(=O)c2ccccc2C1=O [compound 1, 2-chloro-3-amino-1,4-NQ] | 145 |
| O=C1C(Cl)=C(NCCO)C(=O)c2ccccc21 [compound 17] | 38 |
| CCNC1=C(Cl)C(=O)c2ccccc2C1=O [compound 3] | 93 |
| O=C1C=C(SCCO)C(=O)c2ccccc21 [compound 60] | 212 |
| CCCCOCCCNC1=C(Cl)C(=O)c2ccccc2C1=O [compound 26] | 112 |
| CCNC1=CC(=O)c2ncccc2C1=O [compound 66] | 158 |
| O=C1C(Cl)=C(NCCc2ccccc2)C(=O)c2ccccc21 [compound 36] | 135 |
| O=C1C(Cl)=C(Nc2ccccc2)C(=O)c2ccccc21 [compound 39] | 91 |

— PMC6433232, “Targeting mitochondria in cancer therapy could provide a basis for the selective anti-cancer activity” (PLoS ONE, 2019)
